This is an account of results in patent US20250230171A1 (MOMA Therapeutics, Inc., priority 2023, published 2025).

One assay relates to DLD1 BRCA2 (−/−) cells. As to the kind of experiment: 7-day cell viability assay (CellTiter-Glo), DLD1 BRCA2 (−/−). The assay is classed as cell-based, human. Conditions: Homo sapiens, DLD-1, 168 h, 7-day CellTiter-Glo, n=2, read-out: Viability IC50 (uM) DLD1 BRCA2 null. The procedure, abridged: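 7-day growth assay in DLD1 cells with or without BRCA2; seeding densities chosen to keep log-linear growth. Compound: 10 uM top, 3-fold, 9 points. Endpoint: CTG ATP luminescence at RT.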
In general terms: Cellular ATP, detected with luciferase, serves as a proxy for viable cell number.

The next assay has as its system DLD1 WT cells. Put plainly: 7-day cell viability assay (CellTiter-Glo), DLD1 parental (WT). The assay is classed as cell-based, human. The following applies: Homo sapiens, DLD-1, 168 h, 7-day CellTiter-Glo, n=2.

Regarding `COc1cnc(Cl)cc1-c1cc(C)ncc1C(=O)Nc1nc2c(s1)CN(C(=O)[C@H]1CC[C@@H](OC(F)(F)F)CC1)C2` [Example 925], the IC50 (as a rule, the midpoint of a concentration-inhibition curve) with DLD1 BRCA2 (−/−) cells fell in the range of 0.001 to 0.1 µM; with DLD1 WT cells, 5 to 10 µM.
On the same counts, the results for `COc1cnc(Cl)cc1-c1cc(C)ncc1C(=O)Nc1nc2c(s1)CN(C(=O)c1nccc(Cl)c1C(F)F)C2` [Example 926, 2′-chloro-N-(5-(4-chloro-3-(difluoromethyl)picolinoyl)-5,6-dihydro-4H-pyrrolo[3,4-d]thiazol-2-yl)-5′-methoxy-6-methyl-[4,4′-bipyridine]-3-carboxamide] are 0.001 to 0.1 µM and at least 10 µM.
Turning to `COc1cnc(Cl)cc1-c1cc(C)ncc1C(=O)Nc1nc2c(s1)CN(C(=O)c1nc(Cl)c(C(F)F)cc1F)C2` [Example 927, 2′-chloro-N-(5-(6-chloro-5-(difluoromethyl)-3-fluoropicolinoyl)-5,6-dihydro-4H-pyrrolo[3,4-d]thiazol-2-yl)-5′-methoxy-6-methyl-[4,4′-bipyridine]-3-carboxamide], the IC50 with DLD1 BRCA2 (−/−) cells was 0.001 to 0.1 µM; in the assay with DLD1 WT cells, at least 10 µM.
Regarding `COc1cnc(Cl)cc1-c1cc(C)ncc1C(=O)Nc1nc2c(s1)CN(C(=O)c1nc(C(F)(F)F)ccc1F)C2` [Example 936, 2′-chloro-N-(5-(3-fluoro-6-(trifluoromethyl)picolinoyl)-5,6-dihydro-4H-pyrrolo[3,4-d]thiazol-2-yl)-5′-methoxy-6-methyl-[4,4′-bipyridine]-3-carboxamide], the IC50 in the assay with DLD1 BRCA2 (−/−) cells is 0.001 to 0.1 µM; with DLD1 WT cells, at least 10 µM.
For `COc1cnc(Cl)cc1-c1cc(C)ncc1C(=O)Nc1nc2c(s1)CN(C(=O)c1nc(C(F)(F)F)ccc1OC)C2` [Example 937, 2′-chloro-5′-methoxy-N-(5-(3-methoxy-6-(trifluoromethyl)picolinoyl)-5,6-dihydro-4H-pyrrolo[3,4-d]thiazol-2-yl)-6-methyl-[4,4′-bipyridine]-3-carboxamide], the IC50 in the assay on DLD1 BRCA2 (−/−) cells was 0.001 to 0.1 µM; in the assay with DLD1 WT cells, at least 10 µM.
Regarding `Cc1cc(-c2cc(Cl)cnc2OC(F)F)c(C(=O)Nc2nc3c(s2)CN(C(=O)c2ccc(C(F)F)cn2)C3)cn1` [Example 938, 5-chloro-2-(difluoromethoxy)-N-(5-(5-(difluoromethyl)picolinoyl)-5,6-dihydro-4H-pyrrolo[3,4-d]thiazol-2-yl)-6′-methyl-[3,4′-bipyridine]-3′-carboxamide], the IC50 in the assay on DLD1 BRCA2 (−/−) cells was 0.001 to 0.1 µM; with DLD1 WT cells, at least 10 µM.
Regarding `COc1cnc(Cl)cc1-c1cc(C)ncc1C(=O)Nc1nc2c(s1)CN(C(=O)c1nc(Cl)c(C(F)F)cc1C)C2` [Example 940, 2′-chloro-N-(5-(6-chloro-5-(difluoromethyl)-3-methylpicolinoyl)-5,6-dihydro-4H-pyrrolo[3,4-d]thiazol-2-yl)-5′-methoxy-6-methyl-[4,4′-bipyridine]-3-carboxamide], the IC50 with DLD1 BRCA2 (−/−) cells was 0.001 to 0.1 µM; with DLD1 WT cells, at least 10 µM.
On to `COc1cnc(Cl)cc1-c1cc(C)ncc1C(=O)Nc1nc2c(s1)CN(C(=O)c1ncc(C(F)(F)F)nc1OC)C2` [Example 945, 2′-chloro-5′-methoxy-N-(5-(3-methoxy-5-(trifluoromethyl)pyrazine-2-carbonyl)-5,6-dihydro-4H-pyrrolo[3,4-d]thiazol-2-yl)-6-methyl-[4,4′-bipyridine]-3-carboxamide], for which the concentration for half-maximal inhibition (IC50) was 0.001 to 0.1 µM in the assay with DLD1 BRCA2 (−/−) cells and at least 10 µM in the assay on DLD1 WT cells.
Consider `COc1cnc(Cl)cc1-c1cc(C)ncc1C(=O)Nc1nc2c(s1)CN(C(=O)c1ccc(C(F)F)nc1C)C2` [Example 947, 2′-chloro-N-(5-(6-(difluoromethyl)-2-methylnicotinoyl)-5,6-dihydro-4H-pyrrolo[3,4-d]thiazol-2-yl)-5′-methoxy-6-methyl-[4,4′-bipyridine]-3-carboxamide], for which the figures for the IC50 with DLD1 BRCA2 (−/−) cells and in the assay with DLD1 WT cells were 0.001 to 0.1 µM and at least 10 µM, respectively.
As to `COc1cnc(Cl)cc1-c1cc(C)ncc1C(=O)Nc1nc2c(s1)CN(C(=O)c1nccc(C(F)F)c1F)C2` [Example 949, 2′-chloro-N-(5-(4-(difluoromethyl)-3-fluoropicolinoyl)-5,6-dihydro-4H-pyrrolo[3,4-d]thiazol-2-yl)-5′-methoxy-6-methyl-[4,4′-bipyridine]-3-carboxamide], the IC50 is 0.001 to 0.1 µM in the assay with DLD1 BRCA2 (−/−) cells and at least 10 µM in the assay with DLD1 WT cells.
As to `COc1cnc(Cl)cc1-c1cc(C)ncc1C(=O)Nc1nc2c(s1)CN(C(=O)c1nccc(C(F)(F)F)c1C)C2` [Example 951, 2′-chloro-5′-methoxy-6-methyl-N-(5-(3-methyl-4-(trifluoromethyl)picolinoyl)-5,6-dihydro-4H-pyrrolo[3,4-d]thiazol-2-yl)-[4,4′-bipyridine]-3-carboxamide], the IC50 was 0.001 to 0.1 µM in the assay with DLD1 BRCA2 (−/−) cells and at least 10 µM in the assay with DLD1 WT cells.
With `COc1cnc(Cl)cc1-c1cc(C)ncc1C(=O)Nc1nc2c(s1)CN(C(=O)c1nc(C(F)(F)F)ccc1Cl)C2` [Example 952, 2′-chloro-N-(5-(3-chloro-6-(trifluoromethyl)picolinoyl)-5,6-dihydro-4H-pyrrolo[3,4-d]thiazol-2-yl)-5′-methoxy-6-methyl-[4,4′-bipyridine]-3-carboxamide], the IC50 is 0.001 to 0.1 µM in the assay on DLD1 BRCA2 (−/−) cells and at least 10 µM in the assay on DLD1 WT cells.
As for `COc1cnc(Cl)cc1-c1cc(C)ncc1C(=O)Nc1nc2c(s1)CN(C(=O)C1CCN(CC(F)(F)F)CC1)C2` [Example 959, 2′-chloro-5′-methoxy-6-methyl-N-(5-(1-(2,2,2-trifluoroethyl)piperidine-4-carbonyl)-5,6-dihydro-4H-pyrrolo[3,4-d]thiazol-2-yl)-[4,4′-bipyridine]-3-carboxamide], the IC50 was 0.001 to 0.1 µM with DLD1 BRCA2 (−/−) cells and at least 10 µM in the assay on DLD1 WT cells.
On to `COc1cnc(Cl)cc1-c1cc(C)ncc1C(=O)Nc1nc2c(s1)CN(C(=O)c1nccc(C(F)(F)F)c1F)C2` [Example 961, 2′-chloro-N-(S-(3-fluoro-4-(trifluoromethyl)picolinoyl)-5,6-dihydro-4H-pyrrolo[3,4-d]thiazol-2-yl)-5′-methoxy-6-methyl-[4,4′-bipyridine]-3-carboxamide], for which the IC50 was 0.001 to 0.1 µM in the assay with DLD1 BRCA2 (−/−) cells and at least 10 µM in the assay on DLD1 WT cells.
With `COc1cnc(Cl)cc1-c1cc(C)ncc1C(=O)Nc1nc2c(s1)CN(C(=O)c1ccc(C(F)(F)F)c(OC)n1)C2` [Example 962, 2′-chloro-5′-methoxy-N-(5-(6-methoxy-5-(trifluoromethyl)picolinoyl)-5,6-dihydro-4H-pyrrolo[3,4-d]thiazol-2-yl)-6-methyl-[4,4′-bipyridine]-3-carboxamide], the IC50 with DLD1 BRCA2 (−/−) cells was in the range of 0.001 to 0.1 µM; in the assay with DLD1 WT cells it was 5 to 10 µM.
As for `COc1cnc(Cl)cc1-c1cc(C)ncc1C(=O)Nc1nc2c(s1)CN(Cc1ccc(C(F)F)cc1F)C2` [Example 964, 2′-chloro-N-(5-(4-(difluoromethyl)-2-fluorobenzyl)-5,6-dihydro-4H-pyrrolo[3,4-d]thiazol-2-yl)-5′-methoxy-6-methyl-[4,4′-bipyridine]-3-carboxamide], the IC50 was 0.001 to 0.1 µM in the assay with DLD1 BRCA2 (−/−) cells and at least 10 µM in the assay with DLD1 WT cells.
With `COc1cnc(Cl)cc1-c1cc(C)ncc1C(=O)Nc1nc2c(s1)CN(C(=O)c1nc(C(F)(F)F)ccc1C)C2` [Example 965, 2′-chloro-5′-methoxy-6-methyl-N-(5-(3-methyl-6-(trifluoromethyl)picolinoyl)-5,6-dihydro-4H-pyrrolo[3,4-d]thiazol-2-yl)-[4,4′-bipyridine]-3-carboxamide], the results for the IC50 in the assay with DLD1 BRCA2 (−/−) cells and with DLD1 WT cells were 0.001 to 0.1 µM and at least 10 µM, respectively.
Turning to `COc1cnc(Cl)cc1-c1cc(C)ncc1C(=O)Nc1nc2c(s1)CN(C(=O)c1nccc(C(F)F)c1OC)C2` [Example 966, 2′-chloro-N-(5-(4-(difluoromethyl)-3-methoxypicolinoyl)-5,6-dihydro-4H-pyrrolo[3,4-d]thiazol-2-yl)-5′-methoxy-6-methyl-[4,4′-bipyridine]-3-carboxamide], the IC50 is 0.001 to 0.1 µM in the assay on DLD1 BRCA2 (−/−) cells and at least 10 µM in the assay on DLD1 WT cells.
Turning to `COc1cnc(Cl)cc1-c1cc(C)ncc1C(=O)Nc1nc2c(s1)CN(C(=O)c1nccc(C(F)(F)F)c1OC)C2` [Example 968, 2′-chloro-5′-methoxy-N-(5-(3-methoxy-4-(trifluoromethyl)picolinoyl)-5,6-dihydro-4H-pyrrolo[3,4-d]thiazol-2-yl)-6-methyl-[4,4′-bipyridine]-3-carboxamide], the values for the IC50 with DLD1 BRCA2 (−/−) cells and in the assay on DLD1 WT cells were 0.001 to 0.1 µM and at least 10 µM, respectively.
With `CCOc1nc(C(F)(F)F)ccc1C(=O)N1Cc2nc(NC(=O)c3cnc(C)cc3-c3cc(Cl)ncc3OC)sc2C1` [Example 969, 2′-chloro-N-(5-(2-ethoxy-6-(trifluoromethyl)nicotinoyl)-5,6-dihydro-4H-pyrrolo[3,4-d]thiazol-2-yl)-5′-methoxy-6-methyl-[4,4′-bipyridine]-3-carboxamide], the IC50 in the assay on DLD1 BRCA2 (−/−) cells is 0.001 to 0.1 µM; in the assay on DLD1 WT cells it was at least 10 µM.
On the same counts, the results for `CCc1nc(C(F)(F)F)ccc1C(=O)N1Cc2nc(NC(=O)c3cnc(C)cc3-c3cc(Cl)ncc3OC)sc2C1` [Example 970, 2′-chloro-N-(5-(2-ethyl-6-(trifluoromethyl)nicotinoyl)-5,6-dihydro-4H-pyrrolo[3,4-d]thiazol-2-yl)-5′-methoxy-6-methyl-[4,4′-bipyridine]-3-carboxamide] are 0.001 to 0.1 µM and at least 10 µM.
With `COc1cnc(Cl)cc1-c1cc(C)ncc1C(=O)Nc1nc2c(s1)CN(C(=O)c1ncc(C(F)F)nc1OC)C2` [Example 972, 2′-chloro-N-(5-(5-(difluoromethyl)-3-methoxypyrazine-2-carbonyl)-5,6-dihydro-4H-pyrrolo[3,4-d]thiazol-2-yl)-5′-methoxy-6-methyl-[4,4′-bipyridine]-3-carboxamide], the IC50 in the assay on DLD1 BRCA2 (−/−) cells was 0.001 to 0.1 µM; with DLD1 WT cells, at least 10 µM.
For `COc1cnc(Cl)cc1-c1cc(C)ncc1C(=O)Nc1nc2c(s1)CN(C(=O)c1cnc(C(F)(F)F)cc1Cl)C2` [Example 973, 2′-chloro-N-(5-(4-chloro-6-(trifluoromethyl)nicotinoyl)-5,6-dihydro-4H-pyrrolo[3,4-d]thiazol-2-yl)-5′-methoxy-6-methyl-[4,4′-bipyridine]-3-carboxamide], the IC50 in the assay with DLD1 BRCA2 (−/−) cells is 0.001 to 0.1 µM; with DLD1 WT cells, at least 10 µM.
